Results from US12698260B2, “Solid state form of centanafadine HCL and process for preparation thereof” (ASSIA CHEMICAL INDUSTRIES LTD., priority 2021, dated 2026).

Assays:
[1] = Solubility over a range of pH; settings: over a wide range of pH; comparator not stated
[2] = Solid-state stability upon storage and processing; settings: storage and processing (e.g. grinding, pressure, heat, humidity)

Structure (SMILES): c1ccc2cc([C@]34CNC[C@H]3C4)ccc2c1 [(1R,5S)-1-naphthalen-2-yl-3-azabicyclo[3.1.0]hexane]
- solubility [1]: improved solubility
- stability of the crystalline form upon storage and processing [2]: stable crystalline Form upon storage and processing
